Assays:
OR5P3 = molecular target: T1, OR5P3 (Homo sapiens, UniProt Q8WZ94); test: Dual-Glo firefly/Renilla luciferase reporter, dose-response; type: cell-based; details: odorant up to 0.3 mM; competitive-binding model fit, single odorant
T1 sequence (Q8WZ94 1-311): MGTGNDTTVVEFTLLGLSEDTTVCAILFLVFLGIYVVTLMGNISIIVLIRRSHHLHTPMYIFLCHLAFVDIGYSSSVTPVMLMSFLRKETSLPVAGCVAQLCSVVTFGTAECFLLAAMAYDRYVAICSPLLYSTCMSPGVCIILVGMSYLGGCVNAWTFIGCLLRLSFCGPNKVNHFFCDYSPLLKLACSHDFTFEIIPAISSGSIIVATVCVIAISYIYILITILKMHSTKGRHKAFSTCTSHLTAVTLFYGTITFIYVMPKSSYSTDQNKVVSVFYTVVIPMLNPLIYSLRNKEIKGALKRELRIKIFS

Olfr1062 = molecular target: T2, Olfr1062 (Mus musculus, UniProt Q7TR71); test: as above; type: cell-based; details: odorant up to 0.3 mM; competitive-binding model fit, single odorant
T2 sequence (Q7TR71 1-315): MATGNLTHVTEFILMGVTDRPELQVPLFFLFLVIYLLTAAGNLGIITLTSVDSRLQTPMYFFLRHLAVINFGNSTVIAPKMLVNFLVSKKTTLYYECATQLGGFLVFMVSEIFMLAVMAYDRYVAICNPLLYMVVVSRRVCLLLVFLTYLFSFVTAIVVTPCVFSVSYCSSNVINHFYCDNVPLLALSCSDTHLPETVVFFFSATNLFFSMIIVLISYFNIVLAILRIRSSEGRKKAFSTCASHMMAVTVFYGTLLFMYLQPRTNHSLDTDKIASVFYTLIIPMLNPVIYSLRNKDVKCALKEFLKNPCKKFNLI

| Compound | EC50 (OR5P3) | EC50 (Olfr1062) |
| --- | --- | --- |
| CC(=O)c1ccccc1 [acetophenone] | OR5P3, synergy between coumarin and acetophenone | Olfr1062, synergy between all three pairs |
| O=c1ccc2ccccc2o1 [coumarin] | OR5P3, synergy between coumarin and acetophenone | Olfr1062, synergy between all three pairs |
| C=CCc1ccc(O)c(OC)c1 [eugenol] | – | Olfr1062, synergy between all three pairs |

Reference: PMC6511041 (Proceedings of the National Academy of Sciences of the …, 2019)
